# Measurements: a melting point compilation (Tetko et al.; mined from patent text by program, amines drawn as free bases though some values may be those of a salt)
# Residues, ends and D or L forms follow the SMILES beside them. *: point of attachment. Tos = Cc1ccc(S(=O)(=O)*)cc1
row,SMILES,melting point [°C]
1,COc1cc(N2CCOCC2)ccc1Nc1nc(Nc2ccc3c(c2OC)CCCC(=O)N3)ncc1Cl,248 to 249
2,Cc1cc(NC(=O)NC(=O)c2c(Cl)cccc2Cl)cnc1-c1ccccc1,202 to 205
3,O=C1CCCc2c1c1cccc(Cl)c1n2Cc1ccccc1,161 to 162
4,COc1cc(C(=O)N2Cc3ccccc3Cc3ccccc32)ccc1NC(=O)C1(C)C=CC=CC1 (stereo not drawn),209 to 210
5,Cc1c(Cl)cccc1S(=O)(=O)Nc1ccc2occ(C)c2c1,120
6,O=c1[nH]nc2n1C=Cc1ccccc1C2c1ccccc1 (stereo not drawn),258 to 260
7,CCCCn1c(N)c(N=O)c(=O)n(CC2CCCCC2)c1=O,229 to 230
8,Cc1cccc(SCc2c(CCN(C)C)[nH]c3ccccc23)c1,75 to 78
9,CCCCn1c(=O)n(CCN2CCN(c3ccccc3OC)CC2)c(=O)c2sccc21,139 to 140
10,CC(C)(C)OC(=O)CC(NC(=O)CCNC(=O)Cc1ccc(C#N)cc1)C(=O)NC(Cc1ccccc1)C(=O)OC(C)(C)C (stereo not drawn),93 to 94
11,OCCc1c[nH]c2cc(Cl)c(Cl)cc12,65 to 67
12,CC(C)(C)OC(=O)N1CCc2ccc(C(=O)NC3COCCn4c3nc(-c3ccncn3)cc4=O)cc2C1 (racemic),252 to 254
13,O=C1N[C@H](Cc2ccc(C(F)(F)F)cc2)[C@H](c2ccc(F)cc2F)O1 (racemic),147 to 148
14,Cc1cc2nccn2nc1OCC(C)(C)CCCCS(N)(=O)=O,169 to 170
15,CC(=O)Nc1nc2c(Oc3cc(-c4ccc(C(F)(F)F)cc4N)ncn3)cccc2s1,160 to 161
16,Brc1sc2ccccc2c1Br,57 to 59
17,CN(C(=O)CN(C(=O)CNC(=O)Nc1cccc(N2CCCCC2)c1)c1ccccc1)c1ccccc1,235
18,CC(=O)C1(O)C=c2ccccc2=NC1C (stereo not drawn),54 to 56
19,CC(=O)Nc1nc2c(s1)-c1nc(N3CCCC3=O)ncc1CC2,> 160
20,CN(C)CCNC(=O)N1CCN(c2ccc([N+](=O)[O-])cc2)CC1,115 to 120
21,C[C@@H](NC(=O)c1nsc(-c2ccc(Cl)cc2)n1)[C@](O)(Cn1cncn1)c1ccc(F)cc1F,186 to 187
22,CCCN(CC1CC1)c1nc(C)[nH]c2c(-c3ccc(Cl)cc3Cl)nc(C)c1-2,66 to 68
23,CN(C)CCCC1CCN(C=Nc2ccc3c(c2)C(=O)c2ccc(N=CN4CCC(CCCN(C)C)CC4)cc2C3=O)CC1,171 to 174
24,CN(C(=O)c1nn(-c2ccc(Cl)cc2Cl)c(-c2ccc(Cl)cc2)c1O)N1CCCCC1,118

row,SMILES,melting point [°C]
1,CN(Cc1cc2c(=O)c(C(=O)NCc3ccc(Cl)cc3)cn(C)c2o1)CC(O)c1ccccc1 (stereo not drawn),118 to 121
2,Cc1ccc(S(=O)(=O)N[C@@H](CCC(=O)O)C(=O)N[C@@H](Cc2ccc(O)cc2)C(=O)O)cc1 (Tos-Glu-Tyr-OH),173 to 175
3,CNC(=O)C(C)Oc1cc(Oc2nn(C)c(C(F)(F)F)c2Cl)ccc1[N+](=O)[O-] (stereo not drawn),140 to 142
4,Cc1ccc([C@H](CC(=O)O)NC(=O)Nc2c(N)cc(C)n(Cc3ccccc3Cl)c2=O)cc1,145 to 147
5,COc1cc2ncc(C#N)c(Nc3ccc(F)c(Cl)c3)c2cc1NC(=O)C=CCN(CC(C)O)CC(C)O (stereo not drawn),122 to 125
6,CC(C)c1cc(C(=O)Nc2ccc(C(=O)O)cc2)oc1C(C)C,120 to 121
7,CO[C@H](C)C(=O)N[C@H]1CC[C@H](CCN2CCN(c3nccc4c3OCC4)CC2)CC1,170
8,ClC(Cl)(Cl)C1NCC(c2ccccc2)O1 (stereo not drawn),58 to 64
9,COc1ncc(Nc2nc(N3CCOCC3)nc(-n3c(C(F)F)nc4c(OC)cccc43)n2)cn1,255 to 258
10,COc1ccc2c(c1)CC(C(=O)O)O2 (racemic),98 to 100
11,CC(C)=CCOc1c(-c2ccc(S(C)(=O)=O)cc2)cnn(-c2ccc(F)cc2)c1=O,128 to 132
12,COc1cc(C=O)nnc1OC,179 to 181
13,CCCCCCc1nc(C(C)=O)c[nH]1,104 to 106
14,Cc1noc(C)c1-c1cn(Cc2ccccc2)c(=O)c2ncccc12,168 to 170
15,CCS(=O)(=O)CCC(=O)NNC(=O)N1Cc2ccccc2Oc2ccc(O)cc21,191 to 194
16,CCOC(=O)NCC(O)c1cccc2c1CCN2C(=O)c1ccccc1 (stereo not drawn),143
17,Cc1c(NC(=O)c2ccc(-c3ccc(C(F)(F)F)cc3)cc2)ccc2cc(CN3CCCC3)cnc12,220 to 222
18,CCOC(=O)COC1CCC2C3CCC4N=CCCC4(C)C3CCC12C (stereo not drawn),170 to 172
19,O=C(c1nc2ccccc2s1)C1CCN(CCc2ccc(F)cc2)CC1,97 to 98
20,COc1ccc2nc3ccc(C(=O)O)cn3c(=O)c2c1,278 to 290
21,O=C1c2ccccc2C(=O)N1CCCCc1cc(-c2ccccn2)nc(-c2ccccn2)c1,128
22,CS(=O)(=O)Nc1cc(C=C2c3ccccc3CCc3ccccc32)ccc1O,123
23,CCC(=O)C(CCCCCl)NC(=O)c1ccc(C)cc1 (stereo not drawn),85 to 86
24,COc1ccc(N2CCC(=O)C2)cc1,104 to 105
